Data as given in the supplement of paper PMC5580409.

The molecules below were run on Plasmodium falciparum 3D7 (assay: pEC50, asexual blood-stage growth inhibition). Conditions: 72 h.
Experimental: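 Held-out test set measured in the Guy lab in 2014 with the same procedure as the primary St. Jude screen. P. falciparum 3D7 blood-stage culture (2% hematocrit, 1% parasitemia) was treated with compound for 72 h at 37 °C, and growth was read by SYBR Green I fluorescence. EC50 came from a four-parameter Hill fit over a 10-point dilution series […].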

`Cc1ccc2c(c1)c1c3n2CCCN(Cc2ccc(Br)cc2)C3CCC1` (stereo not given) and `Cc1ccc2c(c1)c1c3n2CCCN(Cc2ccc(C(C)C)cc2)C3CCC1` (stereo not given) cannot be ordered by pEC50: less than 4.82 for the first, less than 4.82 for the second.

First: COc1ccc(OC)c(NCC(O)Cn2c3ccc(Cl)cc3c3cc(Cl)ccc32)c1 (stereo not given)
Second: Cc1ccccc1NCC(O)Cn1c2ccc(Cl)cc2c2cc(Cl)ccc21 (stereo not given)
The pEC50 of the first is lower: less than 4.82 for the first, 5.44 for the second.

`O=S(=O)(c1ccccc1)N1CCC(CO)(Cc2ccccc2C(F)(F)F)CC1` and `CC(C)(C)C(=O)N1CCN(C(c2ccccc2)c2ccccc2)CC1` cannot be ordered by pEC50: less than 4.82 for the first, less than 4.82 for the second.

Going from `CCOC(=O)c1cnc2c(OC)cccc2c1Nc1cccc(C(C)=O)c1` to `CCOC(=O)c1cnc2ccccc2c1Nc1ccc2c(c1)OCCO2`, the pEC50 falls from 5.55 to less than 4.82.

`CCn1c(CSCc2ccc(F)cc2)nnc1SCC(=O)Nc1cc(C(F)(F)F)ccc1Cl` and `COc1ccc(CCN2C(=O)N(c3cccc(Cl)c3)C(=O)C2CC(=O)Nc2ccc(F)cc2)cc1` (stereo not given) cannot be ordered by pEC50: less than 4.82 for the first, less than 4.82 for the second.

First: CC1CCC(C(C)C)C(OCC(O)CNC2CCCC2)C1 (stereo not given)
Second: Cc1ccc(OCC(O)CNC2CCCC2)cc1C (stereo not given)
The pEC50 of the first is lower: 5.46 for the first, 5.85 for the second.

Compared with `C=CCN1C(=O)CS/C1=C\c1sc2ccccc2[n+]1CC`, `CCN1/C(=C/C=C/C=C/c2sc3ccccc3[n+]2CC(=O)O)Sc2ccccc21` is lower in pEC50: 5.31 for the first, less than 4.82 for the second.

`Cc1ccc(C)c(Oc2c(C(F)(F)F)oc3c(CN4CCN(C)CC4)c(O)ccc3c2=O)c1` and `CN1CCN(Cc2c(O)ccc3c(=O)c(Oc4ccc5ccccc5c4)c(C(F)(F)F)oc23)CC1` cannot be ordered by pEC50: less than 4.82 for the first, less than 4.82 for the second.

First: Cc1ccc(NC(=O)/C=C/c2ccccc2Cl)cc1
Second: CCc1ccc(NC(=O)/C=C/c2ccccc2Cl)cc1
The pEC50 of the first is lower: 5.46 for the first, 6.69 for the second.

`CCOc1cc(C2CC(=O)NC3=C2C(=O)CC(c2ccc(OC)c(OC)c2)C3)cc(Cl)c1O` (stereo not given) and `COc1cc(C2CC(=O)NC3=C2C(=O)CC(c2ccc(OC)c(OC)c2)C3)c(OC)cc1Br` (stereo not given) are within 0.2 log units of each other in pEC50: 6.68 for the first, 6.86 for the second.

Going from `OC(CNCCc1ccccc1)COc1ccccc1Cl` (stereo not given) to `OC(CNCCc1ccccc1)c1ccccc1` (stereo not given), the pEC50 falls from 5.3 to 5.05.

`CCOc1cc(C2C(C(=O)OC(C)CC)=C(C)NC3=C2C(=O)CC(c2ccc(Cl)cc2)C3)ccc1O` (stereo not given) and `CCOc1cc(C2C(C(=O)OCC(C)C)=C(C)NC3=C2C(=O)CC(c2ccc(Cl)cc2)C3)ccc1O` (stereo not given) cannot be ordered by pEC50: less than 4.82 for the first, less than 4.82 for the second.

`OC(CNC1CCCCC1)Cn1c2ccccc2c2ccccc21` (stereo not given) and `CC(C)(C)NCC(O)Cn1c2ccccc2c2ccccc21` (stereo not given) are within 0.2 log units of each other in pEC50: 5.33 for the first, 5.21 for the second.

`O=C(Nc1ccc(-c2nc3cc(-c4nc5cc(NC(=O)c6cccc7ccccc67)ccc5[nH]4)ccc3[nH]2)cc1)c1cccc2ccccc12` and `O=C(Cc1ccccc1)Nc1ccc(-c2nc3cc(NC(=O)Cc4ccccc4)ccc3[nH]2)cc1` cannot be ordered by pEC50: less than 4.82 for the first, less than 4.82 for the second.

`O=c1c2ccccc2nc(SCc2cn3ccccc3n2)n1Cc1ccco1` and `Oc1nc(/C=C/c2cccc3ccccc23)nc2ccccc12` cannot be ordered by pEC50: less than 4.82 for the first, less than 4.82 for the second.

Going from `O=C(NC1CCN(Cc2ccccc2)CC1)c1cc(-c2ccncc2)nc2ccc(Cl)cc12` to `Cc1cccc2c(C(=O)N3CCN(Cc4ccccc4)CC3)cc(-c3cccnc3)nc12`, the pEC50 falls from 5.54 to 5.25.

Compared with `CCOC(=O)C1=C(C)NC2=C(C(=O)CC(c3ccc(OC)cc3)C2)C1c1cccc(F)c1` (stereo not given), `CCOC(=O)C1=C(C)NC2=C(C(=O)CC(c3ccc(Cl)cc3)C2)C1c1ccc(OC)cc1` (stereo not given) is lower in pEC50: 6.13 for the first, 5.93 for the second.

Going from `OC(CNC1CCCC1)COc1ccccc1-c1ccccc1` (stereo not given) to `Cc1cc(OCC(O)CNC2CCCC2)ccc1Cl` (stereo not given), the pEC50 rises from less than 4.82 to 6.61.

Going from `Cc1ccc(Nc2cc(N3CCN(C(=O)c4ccc(C)cc4)CC3)ncn2)cc1` to `Cc1ccc2nc(-c3cccnc3)cc(C(=O)N3CCN(C(c4ccccc4)c4ccccc4)CC3)c2c1`, the pEC50 falls from 6.13 to 5.71.

`OC(CNc1cccc2ccccc12)Cn1c2ccc(Cl)cc2c2cc(Cl)ccc21` (stereo not given) and `OC(CNc1ccccc1)Cn1c2ccc(Cl)cc2c2cc(Cl)ccc21` (stereo not given) are the same in pEC50: 5.36 for the first, 5.36 for the second.

First: Nc1cccc(-c2nc3cc(Oc4ccc5[nH]c(-c6cccc(N)c6)nc5c4)ccc3[nH]2)c1
Second: Nc1ccc(-c2nc3cc(-c4nc5cc(N)ccc5[nH]4)ccc3[nH]2)cc1
The pEC50 of the first is lower: less than 4.82 for the first, 5.64 for the second.

`CN(C)c1nc(N(C#N)CCOc2ccccc2)nc(N2CCOCC2)n1` and `N=c1n(CCN2CCOCC2)c2ccccc2n1CC(O)COc1ccccc1` (stereo not given) cannot be ordered by pEC50: less than 4.82 for the first, less than 4.82 for the second.

Compared with `Cc1cccc(NCC(O)Cn2c3ccccc3c3ccccc32)c1C` (stereo not given), `Cc1cccc(NCC(O)Cn2c3ccc(Br)cc3c3cc(Br)ccc32)c1C` (stereo not given) is higher in pEC50: less than 4.82 for the first, 5.21 for the second.

`CCOC(=O)C1=C(C)NC2=C(C(=O)CC(c3ccc(Cl)cc3)C2)C1c1cccc(OC)c1OC` (stereo not given) and `CCOC(=O)C1=C(C)NC2=C(C(=O)CC(c3ccc(Cl)cc3)C2)C1c1cc(OC)c(OC)c(OC)c1` (stereo not given) cannot be ordered by pEC50: less than 4.82 for the first, less than 4.82 for the second.

`CCN(CC)CCN1C(=O)c2ccccc2NC1c1ccc(Cl)cc1Cl` (stereo not given) and `CCCCn1c(=N)n(CC(=O)c2ccc(Cl)cc2)c2ccccc21` cannot be ordered by pEC50: less than 4.82 for the first, less than 4.82 for the second.

Going from `Cc1cccc(CN2CCCn3c4c(c5cc(C)ccc53)CCCC42)c1` (stereo not given) to `COc1ccc(CN2CCCn3c4c(c5cc(C)ccc53)CCCC42)cc1O` (stereo not given), the pEC50 falls from 5.33 to less than 4.82.

`O=C(CC1C(=O)N(c2cccc(F)c2)C(=O)N1CCc1ccccc1F)Nc1cccc(F)c1` (stereo not given) and `O=C(Cc1ccc(Br)cc1)Nc1cccc(-c2nc3ccccc3[nH]2)c1` cannot be ordered by pEC50: less than 4.82 for the first, less than 4.82 for the second.

`COc1ccc(C2C(C(=O)OCCOc3ccccc3)=C(C)NC3=C2C(=O)CC(c2ccc(Cl)cc2)C3)cc1` (stereo not given) and `COC(=O)C1=C(C)NC2=C(C(=O)CC(c3ccc(Cl)cc3)C2)C1c1cccc(O)c1` (stereo not given) cannot be ordered by pEC50: less than 4.82 for the first, less than 4.82 for the second.

Going from `CCOc1cc2c(cc1OCC)C(c1ccc(O)cc1)NCC2` (stereo not given) to `CCN1/C(=C/c2sc3ccc(O)cc3[n+]2CC)C=Cc2cc(C)ccc21`, the pEC50 rises from less than 4.82 to 6.3.

Going from `CCCn1nnnc1NCc1cc(Br)c(OCc2ccccc2)c(OC)c1` to `OC(CNCc1ccccc1)Cn1c2ccc(Cl)cc2c2cc(Cl)ccc21` (stereo not given), the pEC50 rises from less than 4.82 to 5.73.

Compared with `c1cc(-c2nc3ccccc3[nH]2)nc(-c2nc3ccccc3[nH]2)c1`, `CCC(C(=O)Nc1ccc(-c2nc3ccccc3[nH]2)cc1)c1ccccc1` (stereo not given) is lower in pEC50: 5.39 for the first, less than 4.82 for the second.

`CCCCNC(=O)c1cn(C2CCCCC2)cc(C(=O)NC2CCN(Cc3ccccc3)CC2)c1=O` and `CCCCNC(=O)c1cn(C2CCCCC2)cc(C(=O)NC2CCN(Cc3ccccc3)C2)c1=O` (stereo not given) cannot be ordered by pEC50: less than 4.82 for the first, less than 4.82 for the second.

`Clc1ccc(CN2CCN(C3CC4CCC3C4)CC2)cc1` (stereo not given) and `CN1CCN([C@@H]2CCN(Cc3cc(Cl)ccc3O)C[C@H]2O)CC1` cannot be ordered by pEC50: less than 4.82 for the first, less than 4.82 for the second.

`C=CCn1c(=N)n(CC(O)c2cccc(Br)c2)c2ccccc21` (stereo not given) and `C=CCn1c(=N)n(CC(O)c2ccc(Br)cc2)c2ccccc21` (stereo not given) are within 0.2 log units of each other in pEC50: 5.66 for the first, 5.62 for the second.

`Cc1cccc(Oc2c(C(F)(F)F)oc3c(CN4CCC(C)CC4)c(O)ccc3c2=O)c1` and `O=c1c(Oc2ccccc2)c(C(F)(F)F)oc2c(CN3CCCCC3)c(O)ccc12` cannot be ordered by pEC50: less than 4.82 for the first, less than 4.82 for the second.

Going from `CCc1cccc(NC(=O)/C=C/c2ccccc2Cl)c1` to `CCOc1ccc(NC(=O)/C=C/c2ccccc2Cl)cc1`, the pEC50 rises from 5.36 to 6.34.

`CC(C)(CO)NCC(O)Cn1c2ccc(Cl)cc2c2cc(Cl)ccc21` (stereo not given) and `Cc1cccc(NCC(O)Cn2c3ccc(Cl)cc3c3cc(Cl)ccc32)c1` (stereo not given) are within 0.2 log units of each other in pEC50: 5.29 for the first, 5.35 for the second.

Going from `N=c1n(CCN2CCCC2)c2ccccc2n1CC(O)c1ccc(Cl)c(Cl)c1` (stereo not given) to `N=c1n(CCN2CCCCC2)c2ccccc2n1CC(O)COc1ccc(Cl)cc1` (stereo not given), the pEC50 falls from 5.88 to 5.33.

`Cc1cc(Nc2ccccc2C(F)(F)F)nc(-n2nc(C)cc2C)n1` and `Cc1cc(C)nc(Nc2ncc(O)n2-c2cccc(C(F)(F)F)c2)n1` cannot be ordered by pEC50: less than 4.82 for the first, less than 4.82 for the second.

`O=c1c(Oc2ccc3ccccc3c2)c(C(F)(F)F)oc2c(CN3CCCC3)c(O)ccc12` and `CCN1CCN(Cc2c(O)ccc3c(=O)c(Oc4ccccc4Br)c(C(F)(F)F)oc23)CC1` are within 0.2 log units of each other in pEC50: 5.27 for the first, 5.46 for the second.

Compared with `Oc1ccc(Br)cc1CN1CCN(c2cccc(Cl)c2)CC1`, `OCCC1CN(Cc2cc(Cl)ccc2O)CCN1Cc1ccccc1` (stereo not given) is lower in pEC50: 6.06 for the first, less than 4.82 for the second.

Compared with `OC(CNc1ccc(Cl)cc1)Cn1c2ccc(Cl)cc2c2cc(Cl)ccc21` (stereo not given), `CCOc1ccc(NCC(O)Cn2c3ccc(Cl)cc3c3cc(Cl)ccc32)cc1` (stereo not given) is higher in pEC50: less than 4.82 for the first, 5.13 for the second.

Going from `O=C(Nc1ccccc1)c1ccccc1OCC(O)CN(Cc1ccccc1)Cc1ccccc1` (stereo not given) to `COc1cc(OC)c([N+](=O)[O-])cc1/C=N/NC(=O)C1CC1(c1ccccc1)c1ccccc1` (stereo not given), the pEC50 falls from 6.31 to less than 4.82.

Going from `CCOC(=O)C1=C(C)NC2=C(C(=O)CC(c3ccccc3)C2)C1c1cc(Cl)c(O)c(OC)c1` (stereo not given) to `COc1ccc(C2CC(=O)NC3=C2C(=O)CC(c2ccccc2)C3)cc1OC` (stereo not given), the pEC50 rises from less than 4.82 to 5.34.

`OCCC1CN(Cc2cc(Cl)ccc2O)CCN1C1CCCCC1` (stereo not given) and `O=C(NCC1CCCCC1)c1cn(C2CC2)cc(C(=O)NC2CCN(Cc3ccccc3)C2)c1=O` (stereo not given) cannot be ordered by pEC50: less than 4.82 for the first, less than 4.82 for the second.

First: Cc1ccccc1Cn1c(=N)n(CC(O)c2ccc(Cl)c(Cl)c2)c2ccccc21 (stereo not given)
Second: CCCCn1c(=N)n(CC(O)c2ccc(OC)cc2)c2ccccc21 (stereo not given)
The pEC50 of the first is higher: 6.39 for the first, less than 4.82 for the second.

Compared with `Cc1nn(C)c(C(=O)NNC(=O)Nc2ccc([N+](=O)[O-])cc2)c1Cl`, `CN(C)c1ccc(NC(=O)/C=C/c2cccc(Cl)c2)cc1` is lower in pEC50: 6.93 for the first, 6.39 for the second.

`Cc1c(Cl)ccc2c(C(=O)NCCN3CCOCC3)cc(-c3ccncc3)nc12` and `OC(CN1CCN(Cc2ccccc2)CC1)Cn1c2ccc(Cl)cc2c2cc(Cl)ccc21` (stereo not given) cannot be ordered by pEC50: less than 4.82 for the first, less than 4.82 for the second.

Compared with `CC(C)c1ccc(/C=C/C(=O)Nc2cccc(F)c2)cc1`, `CC(C)c1ccc(NC(=O)/C=C/c2ccccc2)cc1` is higher in pEC50: less than 4.82 for the first, 5.16 for the second.

Compared with `COc1ccc(CN2CCCn3c4c(c5cc(C)ccc53)CCCC42)c(OC)c1` (stereo not given), `COc1ccc(OC)c(C2CC(=O)C3=C(C2)NC(=O)CC3c2cccc(Cl)c2Cl)c1` (stereo not given) is higher in pEC50: less than 4.82 for the first, 5.61 for the second.

`CCC(C)c1ccc(NC(=O)/C=C/c2cccc(Cl)c2)cc1` (stereo not given) and `CCCCn1c(=N)n(CC(=O)c2ccc(Br)cc2)c2ccccc21` cannot be ordered by pEC50: less than 4.82 for the first, less than 4.82 for the second.

`O=C(NC1C2CC3CC(C2)CC1C3)c1ccc2c(=O)n3c(nc2c1)CCCCC3` (stereo not given) and `CC(C)(C)NC(=O)c1cn(C2CCCCC2)cc(C(=O)NC2CCN(Cc3ccccc3)CC2)c1=O` cannot be ordered by pEC50: less than 4.82 for the first, less than 4.82 for the second.

`OCC(O)Cn1c2ccc(Br)cc2c2cc(Br)ccc21` (stereo not given) was tested, and the pEC50 was less than 4.82.
